Measured values: PubChem BioAssay (NCI)
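Where inhibition never reached the appropriate level, the endpoint shown equals the highest concentration tested. Otherwise, values were interpolated linearly from a five-concentration, 48-hour dose response in 96-well plates. TGI: total growth inhibition.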

Tests used:
Assay in all cases: NCI tumour cell line growth inhibition, 48 h
[1] = system: SF-268 CNS
[2] = system: HCT-116 colon
[3] = system: K-562 leukemia
[4] = system: UACC-62 melanoma
[5] = system: RXF 393 renal
[6] = system: XF 498 CNS
[7] = system: KM12 colon
[8] = system: SK-MEL-5 melanoma
[9] = system: RPMI-8226 leukemia
[10] = system: U251 CNS
[11] = system: HT29 colon
[12] = system: KM20L2 colon
[13] = system: SN12C renal
[14] = system: HOP-92 NSCLC
[15] = system: P388/ADR leukemia
[16] = system: HCT-15 colon
[17] = system: OVCAR-3 ovarian
[18] = system: NCI-H23 lung
[19] = system: A498 renal
[20] = system: NCI/ADR-RES ovarian
[21] = system: UO-31 renal
[22] = system: SW-620 colon
[23] = system: M19-MEL melanoma
[24] = system: SK-OV-3 ovarian
[25] = system: SK-MEL-2 melanoma
[26] = system: OVCAR-8 ovarian
[27] = system: EKVX NSCLC
[28] = system: NCI-H522 lung
[29] = system: MCF7 breast
[30] = system: MALME-3M melanoma
[31] = system: DMS 273 small cell lung
[32] = system: COLO 205 colon
[33] = system: DMS 114 small cell lung
[34] = system: UACC-257 melanoma
[35] = system: SK-MEL-28 melanoma
[36] = system: SN12K1 renal
[37] = system: CCRF-CEM leukemia
[38] = system: SNB-19 CNS
[39] = system: P388 leukemia
[40] = system: IGROV1 ovarian
[41] = system: OVCAR-5 ovarian
[42] = system: DLD-1 colon
[43] = system: HOP-18 NSCLC
[44] = system: LOX IMVI melanoma
[45] = system: OVCAR-4 ovarian
[46] = system: M14 melanoma
[47] = system: HOP-62 NSCLC
[48] = system: TK-10 renal
[49] = system: SR leukemia
[50] = system: HCC-2998 colon
[51] = system: CAKI-1 renal
[52] = system: MOLT-4 leukemia
[53] = system: ACHN renal
[54] = system: SNB-75 CNS
[55] = system: SNB-78 CNS
[56] = system: HL-60(TB) leukemia
[57] = system: SF-539 CNS
[58] = system: A549 NSCLC
[59] = system: SF-295 CNS
[60] = system: 786-0 renal
[61] = system: NCI-H226 lung
[62] = system: LXFL 529 NSCLC
[63] = system: NCI-H460 lung

SMILES: COc1ccc(N[C@@H]2c3cc4c(cc3C(c3cc(OC)c(O)c(OC)c3)[C@H]3C(=O)OCC32)OCO4)cc1OC (some centres not stated)
- TGI [1]: > 56.7 µM
- TGI [2]: > 42.7 µM
- TGI [3]: > 100 µM
- TGI [4]: > 39.2 µM
- TGI [5]: > 26.9 µM
- TGI [6]: > 61.8 µM
- TGI [7]: > 21.8 µM
- TGI [8]: > 31.7 µM
- TGI [9]: > 31.7 µM
- TGI [10]: > 67.5 µM
- TGI [11]: > 20.7 µM
- TGI [12]: > 100 µM
- TGI [13]: > 72.9 µM
- TGI [14]: > 100 µM
- TGI [15]: 10.3 µM
- TGI [16]: > 100 µM
- TGI [17]: > 28.4 µM
- TGI [18]: 1.92 µM
- TGI [19]: > 100 µM
- TGI [20]: > 100 µM
- TGI [21]: > 100 µM
- TGI [22]: > 100 µM
- TGI [23]: > 100 µM
- TGI [24]: > 52.1 µM
- TGI [25]: > 30.4 µM
- TGI [26]: > 100 µM
- TGI [27]: > 100 µM
- TGI [28]: > 25.3 µM
- TGI [29]: > 100 µM
- TGI [30]: > 40.7 µM
- TGI [31]: > 100 µM
- TGI [32]: > 36.3 µM
- TGI [33]: > 21.9 µM
- TGI [34]: 38.5 µM
- TGI [35]: > 100 µM
- TGI [36]: > 34.8 µM
- TGI [37]: > 39.3 µM
- TGI [38]: > 79.2 µM
- TGI [39]: 10.9 µM
- TGI [40]: > 75.7 µM
- TGI [41]: > 100 µM
- TGI [42]: > 25.7 µM
- TGI [43]: > 64.2 µM
- TGI [44]: > 100 µM
- TGI [45]: > 100 µM

SMILES: CCOC(OC1=C(C#N)CCCC1)C(CC)[Se]c1ccccc1[N+](=O)[O-] (configuration not stated)
- TGI [1]: 43.6 µM
- TGI [46]: 37.8 µM
- TGI [2]: 36.8 µM
- TGI [47]: 88.8 µM
- TGI [3]: > 100 µM
- TGI [4]: 47 µM
- TGI [5]: 65.7 µM
- TGI [48]: > 100 µM
- TGI [49]: 38.9 µM
- TGI [50]: 45.9 µM
- TGI [6]: 61.5 µM
- TGI [51]: > 100 µM
- TGI [52]: 71.2 µM
- TGI [7]: 43.1 µM
- TGI [8]: 28.7 µM
- TGI [9]: 43.4 µM
- TGI [10]: 30.9 µM
- TGI [11]: 31.4 µM
- TGI [53]: 80.7 µM
- TGI [54]: 49.5 µM
- TGI [12]: 31.4 µM
- TGI [13]: 42.7 µM
- TGI [14]: 40.6 µM
- TGI [16]: 37.1 µM
- TGI [17]: 95.4 µM
- TGI [18]: 31.3 µM
- TGI [55]: > 100 µM
- TGI [19]: > 100 µM
- TGI [56]: 46.1 µM
- TGI [21]: 80.5 µM
- TGI [57]: 37.8 µM
- TGI [23]: 37.2 µM
- TGI [24]: > 100 µM
- TGI [58]: > 100 µM
- TGI [25]: > 100 µM
- TGI [26]: 48.7 µM
- TGI [27]: 70 µM
- TGI [28]: 30.9 µM
- TGI [30]: > 100 µM
- TGI [59]: 47 µM
- TGI [31]: 36.2 µM
- TGI [32]: > 100 µM
- TGI [33]: 30.1 µM
- TGI [34]: > 100 µM
- TGI [60]: 34.2 µM
- TGI [35]: 89.9 µM
- TGI [37]: 49.6 µM
- TGI [38]: 72.5 µM
- TGI [40]: 72 µM
- TGI [41]: 66.8 µM
- TGI [42]: 35.6 µM
- TGI [43]: 74.1 µM
- TGI [61]: 43 µM
- TGI [62]: 89.2 µM
- TGI [44]: 30.9 µM
- TGI [63]: > 100 µM
- TGI [45]: 35.1 µM
